Results: a melting point compilation (Tetko et al.; mined from patent text by program, amines drawn as free bases though some values may be those of a salt)

| Structure (SMILES) | melting point [°C] |
| --- | --- |
| CCN(CC)c1ccc(S(=O)(=O)N2CC(O)CC2=O)cc1 (stereo not drawn) | 165 |
| CCOP(=O)(Cc1cc(=O)[nH]c2cc(Cl)c(Cl)cc12)OCC | 219 to 222 |
| COc1ccc(C=Cc2nnc(C(Cl)(Cl)Cl)o2)cc1 | 140 to 142 |
| O=C(Nc1nc(C(F)(F)F)c(I)s1)c1cccs1 | 184 to 185 |
| CC[C@H](N)c1nc2c(C(F)(F)F)cccc2c(O)c1C(=O)Nc1nccs1 | 206 |
| COc1cc(C)c(C(O)c2c(Cl)cncc2C(F)(F)F)c(OC)c1OC (stereo not drawn) | 102 to 105 |
| Cc1cccc(Nn2c(C)c(C)[nH]c2=S)c1 | 230 |
| Fc1ccc(-c2[nH]cc(C3=CC4CCCCN4CC3)c2-c2ccncc2)cc1 (stereo not drawn) | 223 to 224 |
| O=C(OCC=Cc1ccccc1)C(=C1NCCCS1)[N+](=O)[O-] | 115 to 116 |
| O=C(OCCOc1ccc2ncnn2n1)C1CN(C(c2ccccc2)c2ccccc2)CCN1 (stereo not drawn) | 157 to 159 |
| CCCCCCCCCCCCc1ccc(C(=O)c2ccccc2C(=O)O)cc1 | 85 |
| COc1cc(OC)nc(Cc2nscc2C(=O)N(C)c2ccccc2)n1 | 92 to 93 |
| COc1ccc(CC(C)(C)CO)cc1OC | 48.5 to 50 |
| CC(C)(C)c1cc(C(=O)OCc2ccccc2)cc(C(C)(C)C)c1O | 80 to 83 |
| CC(C)CCCC(C)C1CCC2C3=CC=C4CC(O)CC(O)C4(C)C3CCC21C (stereo not drawn) | 155 to 158 |
| COC(=O)Cc1c(Cl)ncnc1OC | 64 |
| CCc1nc2c([nH]1)c(=O)n(C)c(=O)n2-c1ccc(Cl)cc1Cl | 274 to 276 |
| CC(C)Oc1cc(-n2nc(C(F)(F)F)[nH]c2=O)c(Cl)cc1Cl | 160 to 161 |
| N#CCNCNCC#N | 83 to 85 |
| CCCC[C@@](C)(O)C(=O)O | 67.8 to 67.9 |
| CCC12CCC3C4CCC(OC)=CC4=CCC3C1C=CC2=O (stereo not drawn) | 159 to 161 |
| CC(C)(C)c1nc(C=O)nc(C(C)(C)C)c1O | 187 to 189 |
| O=P1(c2ccccc2)OCC2(CO1)COP(=O)(c1ccccc1)OC2 (stereo not drawn) | 264 to 265 |
| C=CCN(CC=C)C(=O)n1cnc(S(=O)(=O)CC)n1 | 39 to 42 |
| COc1ccc(CCl)cc1OCc1nc(-c2ccco2)oc1C | 115 to 116 |
| COC(=O)C(=O)C(CCCc1ccccc1)CS(=O)(=O)c1ccc(OC)cc1 (stereo not drawn) | 95 |

| Structure (SMILES) | melting point [°C] |
| --- | --- |
| CNc1ccc2cc(Br)ccc2c1[N+](=O)[O-] | 169 to 170 |
| N#Cc1ncc(SCC(=O)O)nc1C#N | 141 to 143 |
| COC(=O)COc1ccc(C(C)=O)c(O)c1 | 101 to 103 |
| CCCc1cc(NCc2ccc3c(c2)OCO3)nc(SCC(N)=NO)n1 | 145 to 147 |
| CCCC1CC1(C(=O)Nc1ccc(Br)cc1C)C(=O)OC (stereo not drawn) | 60 |
| COc1nc2cc(C)c(Cl)c(N)c2nc1OC | 169 to 170 |
| CCOc1ccc(C(Cl)=NOS(C)(=O)=O)cc1 | 93 to 95.5 |
| CC(C)(O)c1ccc(-c2nn(Cc3ccccc3)c3ccccc23)o1 | 124 to 127 |
| CCC1(NC2=NS(=O)(=O)c3sc(Cl)cc3N2)CCC1 | 244 to 246 |
| O=C(O)[C@@H]1CCCN1S(=O)(=O)CCS | 99 to 101 |
| Cc1cc(C)c2nccn2n1 | 70 to 74 |
| COc1ccc(C(=C/C=C/C(=O)Nc2ccc(Cc3cccnc3)cc2)c2ccc(OC)cc2)cc1 | 185 to 186 |
| COC(=N)c1ccc(C(=O)O)cn1 | 284 to 286 |
| Cc1nn(C)c(NN)c1[N+](=O)[O-] | 177 to 179 |
| O=[N+]([O-])c1cn2c(n1)OC[C@@H](OCc1ccc(Br)cn1)C2 | 171 to 173 |
| COC(=O)c1c(N)n(C)c2ccccc12 | 192 to 196 |
| OCCc1coc2c(O)cccc12 | 116 to 117 |
| CCCCn1c(=O)n(CC=C(C)C)c(=O)c2c1ncn2S(=O)(=O)c1ccc(C)cc1 | 130 to 135 |
| CCCCCCOc1ccc(C(=O)O)cc1Cl | 140 |
| O=C(Nc1ccc(-n2nc(C(F)(F)F)cc2C(F)(F)F)cc1)c1ccccc1O | 173 to 175 |
| Nc1c(Cl)cc(C(=O)O)c2c1CCCO2 | 226 |
| COC(=O)CCCc1cc2nc(Cl)ccc2n1S(=O)(=O)c1ccc(C(C)(C)C)cc1 | 107 |
| CC(C)(C)CC(C)(C)c1cc(Cc2cc(C(C)(C)CC(C)(C)C)cc(C(C)(C)CC(C)(C)C)c2O)c(O)c(-n2nc3ccccc3n2)c1 | 174 |
| N#CCCn1cnc([N+](=O)[O-])c1 | 112 to 113 |
| CS(=O)(=O)Cc1cc(C(=O)C=O)ccc1OCc1ccccc1 | 108 to 110 |

Next, values leading:

| melting point [°C] | Structure (SMILES) |
| --- | --- |
| 137 to 138 | O=c1ccccn1C1=CC(CF)(CF)Oc2ccc(C(F)(F)C(F)(F)F)cc21 |
| 250 to 252 | N#Cc1cc(F)cc(-c2ccc3c(c2)C(C2CC2)(C2CC2)OC(=O)N3)c1 |
| 94 | O=C1CC(CO)N1Cc1ccccc1 (stereo not drawn) |
| 148 to 150 | CN(C)C1CCN(c2nc(N3CCOCC3)c3ncnc(NCc4ccccc4)c3n2)CC1 |
| 176 to 177 | COc1cc2cc(-c3cccnc3)nc(-c3ccccc3)c2cc1OC |
| 188 to 190 | Oc1cccc2c1CCCC2n1cc[nH]c1=S (stereo not drawn) |
| 113 to 115 | CCCc1c(OCCCOc2cccc3c2CCCC3)ccc2c1OC(CCC(O)CO)(CCC(O)CO)CC2=O (stereo not drawn) |
| 164 to 167 | CN(C)CC#Cc1ccc(C(CC2CCCC2)C(=O)Nc2nccs2)cc1 (stereo not drawn) |
| 184 to 185 | CC1CC(=O)NN=C1c1ccc2c(c1)N(C)C(=O)C(C)O2 (stereo not drawn) |
| 80 to 82 | CCC#CCOc1cc2c(cc1/C=C/c1ccc(C(=O)OCC)cc1)C(C)(C)CCC2(C)C |
| 203 to 205 | O=C(O)C1Nc2ccccc2-c2c([N+](=O)[O-])cnn21 (stereo not drawn) |
| 95 to 105 | COc1nc(Cn2cncn2)cnc1NS(=O)(=O)c1cccc(Cl)c1Cl |
| > 300 | O=c1c2ccc(O)cc2oc2c(O)c(O)ccc12 |
| 106 | COc1ccc(-c2nc(Sc3ccc(F)cc3)[nH]c2-c2ccc(OC)cc2)cc1 |
| 76 to 78 | COc1ccc(C2=CCCCc3cc(OCc4ccccc4)ccc32)cc1 |
| 152 to 154 | COC(=O)C1=C(C=O)NC(C)=C(C(=O)OCC(C)C)C1c1ccccc1C#N (stereo not drawn) |
| 265 | Cc1ccc2c(N3CCc4ccc(Cl)cc43)ncnc2c1 |
| 172 to 174 | Cc1ccc2c(c1)C1(CCN(CCCC(=O)c3ccc(F)cc3)C1)CC2O (stereo not drawn) |
| 229 to 231 | CCc1cccc(C)c1CNc1cc(C(=O)N2CCOCC2)cc2c1nc(C)n2C |
| 206 to 208 | O=c1oc2c(Br)cccc2cc1S(=O)(=O)Nc1ccc(Br)cc1 |
| 90 to 91 | CN(C)CCCCCCCOc1ccc2oc(-c3ccccc3)cc(=O)c2c1 |
| 171 to 172 | CC1(C)OC(=S)Nc2ccc(-c3ccccc3Cl)cc21 |
| 198 to 202 | O=C(C[C@H]1CC[C@@H](C(=O)O)N1Cc1ccccc1)N[C@@H](Cc1ccc(OCc2c(Cl)cccc2Cl)cc1)C(=O)O |
| 142 | O[C@H]1CSC(c2ccccc2)=N[C@@H]1c1ccccc1 (racemic) |
| 105 to 106 | CCOC(=O)/C=C(/c1ccc(OC)cc1)c1cccc(C#N)c1 |
| 150 to 160 | Cc1ccc2c(c1)C=Cc1cc(C(C)C)ccc1C2c1cn(Cc2ccc(C(=O)O)o2)c(=O)[nH]c1=O (stereo not drawn) |

| melting point [°C] | Structure (SMILES) |
| --- | --- |
| 232 to 234 | O=C1CN(Cc2ccc(CCn3cnc4cc(-c5ccc(Cl)cc5)sc4c3=O)cc2)CCN1 |
| 218 to 219 | Cc1ccc(-n2c(=O)n(OCc3ccccc3)c(=O)c3cc(F)c(Cl)nc32)cc1 |
| 197 to 198 | CCOC(=O)C(O)c1oc(-n2ccnc2C)nc1-c1ccc(Cl)cc1 (stereo not drawn) |
| 205 to 206 | O=C(O)c1ccnc(-c2cccc3cc(Cc4cc(F)cc(Cl)c4)sc23)c1 |
| 155 to 157 | Cn1c(-c2cc(C(F)(F)F)nn2-c2ncccc2Cl)nc2c(Cl)cccc2c1=O |
| 71.2 | COc1ccccc1CNC1CCN(C2CCN(C(=O)c3cc(C)cc(C)c3)C(Cc3ccccc3)C2)CC1 (stereo not drawn) |
| 131 to 132 | C[C@@H](N1CCN(c2ccc(OCC(F)(F)F)cc2)C1=O)[C@@]1(c2ccc(F)cc2F)CO1 |
| 170 to 172 | O=S(=O)(CCN1CCC2(CC1)OCc1ccccc12)CCN1CCC2(CC1)OCc1ccccc12 |
| 190 to 192 | O=[N+]([O-])c1cc[nH]c1-c1ccccc1 |
| 96 to 99 | Cc1c(-c2ccccc2)ncc2c(N3CCOC(C)C3)nnc(N3CCOC(C)C3)c12 (stereo not drawn) |
| 174 to 176 | Cc1cc2oc(=O)c3c(c2cc1NC(=O)c1ccccc1)CCN(CCN1CC2CCC(CC2)C1)C3 |
| 158 to 159 | O=C1c2ccccc2C(=O)c2c(NCCN3CCOCC3)ccc(NCCN3CCOCC3)c21 |
| 300 | CC1SC(=O)NN=C1c1ccc2c(c1)C(=NNC(N)=S)C(=O)N2 (stereo not drawn) |
| 124 to 125 | O=[N+]([O-])c1ccc(-c2nc(-c3ccco3)no2)c(Cl)c1 |
| 191 to 193 | CC(Cl)(Cl)C(NC(=O)c1cc(F)cc(F)c1)NC(=NC#N)Nc1cccnc1 (stereo not drawn) |
| 155 to 165 | O=C(c1ccc(-n2ccnc2)cc1)N1CCN(S(=O)(=O)c2cc3cc(Cl)ccc3[nH]2)CC1 |
| 233 to 234 | Cc1ccc(-n2c3ccccc3c3cc(C(C#N)=C(C#N)C#N)ccc32)cc1 |
| 278 to 280 | O=C1CCC(N2Cc3c(OCc4ccc5nc(CN6CCOCC6)cn5c4)cccc3C2=O)C(=O)N1 (stereo not drawn) |
| 157 to 158 | NN1C=Nc2ccc(Cl)cc2C1(O)c1ccccc1 (stereo not drawn) |
| 239 to 240 | CC(c1oc2ccc(Br)cc2c(=O)c1-c1ccccc1)n1ncc2c(N)ncnc21 (stereo not drawn) |
| 190 to 192 | Cn1c(-c2ccccc2Cl)c2ccsc2nc1=O |
| 84 to 85 | CC1(C)CCC(C)(C)c2cc(C#CCO)ccc21 |
| 139 to 142 | Cn1c(-c2cccc(C(F)(F)F)c2)cc(=O)n(-c2ccc(Cl)cc2F)c1=O |
| 155 to 157 | COc1nc(N)nc2c1ncn2C1OC(CO)C(OC(=O)c2ccccc2)C1O (stereo not drawn) |
| 242 to 244 | Cc1cc2nnc(C)n2nc1-c1ccc(C#N)cc1 |
| 117 to 120 | O=C(C=Cc1ccc(F)cc1)c1cccs1 |
